Experimental data: patent US20260166045A1, “COMBINATION THERAPY COMPRISING GSPT1-DIRECTED MOLECULAR GLUE DEGRADERS AND PI3K/AKT/mTOR PATHWAY INHIBITORS” (Monte Rosa Therapeutics, Inc., priority 2022, published 2026)

What was measured:
MCF7 xenografts = test: MCF7 cell-derived xenograft (CDX) in vivo combination study; parameters: species or system BALB/c nude mice; settings: compound 1-1 10 mg/kg; for Δ TV ratio to vehicle group (A/C, B/C, (AB)/C): day 28, Clarke method; for Δ TV (delta tumor volume): p.o. qd for 28 days, average of four tumors
Protocol: […] (0.36 mg) pellets (Innovative Research of America Cat. No.: SE-121, pellet size: 3.0 mm) were implanted 2-3 days before cell inoculation.
(§1) Compound 1-1 was formulated every day freshly as a solution in 5% DMSO/95% (30% w/v HPβCD in water). This formulation was also used as vehicle control. Everolimus was formulated as a suspension in 1% MC (400 cps), which was prepared every 3 days.
(§2) Body weights were measured at the same time.
An approximation of drug interactions was made using the method described by Clarke (Clarke et al. 1997. Breast Cancer Res Treat. 46(2-3):255-78). This was applied to […] and can estimate interactions from limited data. In short, for compound A, B, or the combination AB (with control group C), antagonism is predicted when (AB)/C>(A/C)×(B/C), an additive effect is predicted when (AB)/C=(A/C)×(B/C), and synergistic interaction is predicted to occur when (AB)/C<(A/C)×(B/C). Calculations in Table 10B indicate that the interaction of everolimus and compound 1-1 in the MCF7 CDX model is synergistic.
17β-Estradiol (0.36 mg) pellets (Innovative Research of America Cat. No.: SE-121, pellet size: 3.0 mm) were implanted 2-3 days before cell inoculation.
(§3) Compound 1-1 was formulated every day freshly as a solution in 5% DMSO/95% (30% w/v HPβCD in water). This formulation was also used as vehicle control. Alpelisib was formulated as a solution in 20% captisol+80% water (pH adjusted to 4), which was prepared every week.

CAL51 xenografts = test: CAL51 cell-derived xenograft (CDX) in vivo combination study; parameters: species or system SCID Beige mice; settings: compound 1-1 3 mg/kg; for antitumor effect vs vehicle (tumor volume): day 21, ANOVA with post hoc Tukey's test; for antitumor effect vs vehicle (tumor volume) / Δ TV ratio to vehicle group (A/C, B/C, (AB)/C): p.o. qd; for Δ TV ratio to vehicle group (A/C, B/C, (AB)/C): day 21, Clarke method; for Δ TV (delta tumor volume): p.o. qd for 21 days, average of four tumors
Protocol: as §1, §2, §3

NCI-H1836 cell line = test: CTG viability, 11x11 concentration matrix, Loewe synergy (SCLC); settings: inhibitor combined with compound 1-1, 11x11 matrix, 72 hours
Protocol: (§4) Cells were cultured in the media recommended by the supplier.
(§5) On the day before compound addition, cells were seeded in 384-well-plates (white with clear flat bottom) at the densities indicated in Table 6 in 40 μL of growth medium. The next day, compounds were dispensed from 10 mM stocks using a HP D300 dispenser according to the concentration matrices described above. For each cell line, the compound concentration matrices were dispensed twice as side-by-side duplicates on one 384-well-plate. In addition, each plate contained 14 wells with only growth medium and 44 wells with cells treated with DMSO alone to calculate the average background and maximal signals, respectively. The final DMSO concentration was normalized to 0.2% across the plates. Plates were then incubated for 72 hours. CellTiter-Glo® Luminescent Cell Viability Assay (CTG, Promega G7570) reagent was prepared according to the manufacturer's instructions. Plates were equilibrated to room temperature for approximately 30 minutes, 25 μL CTG reagent was added to each well and plates were mixed on an orbital shaker for 10 minutes to allow for cell lysis. After further incubation for 20 minutes at room temperature, the clear bottoms of the plates were pasted with white back seal and luminescence was read on an EnVision plate reader (measurement time 0.1 seconds).

NCI-H1876 cell line = test: as above; settings: inhibitor combined with compound 1-1, 11x11 matrix, 72 hours
Protocol: as §4, §5

NCI-H209 cell line = test: as above; settings: inhibitor combined with compound 1-1, 11x11 matrix, 72 hours
Protocol: as §4, §5

NCI-H526 cell line = test: as above; settings: inhibitor combined with compound 1-1, 11x11 matrix, 72 hours
Protocol: as §4, §5

NCI-H69 cell line = test: as above; settings: inhibitor combined with compound 1-1, 11x11 matrix, 72 hours
Protocol: as §4, §5

DOHH-2 cell line = test: CTG viability, 11x11 concentration matrix, Loewe synergy (lymphoma); settings: inhibitor combined with compound 1-1, 11x11 matrix, 72 hours
Protocol: as §4, §5

DB cell line = test: as above; settings: inhibitor combined with compound 1-1, 11x11 matrix, 72 hours
Protocol: as §4, §5

WSU-DLCL2 cell line = test: as above; settings: inhibitor combined with compound 1-1, 11x11 matrix, 72 hours
Protocol: as §4, §5

RAJI cell line = test: as above; settings: inhibitor combined with compound 1-1, 11x11 matrix, 72 hours
Protocol: as §4, §5

SU-DHL-6 cell line = test: as above; settings: inhibitor combined with compound 1-1, 11x11 matrix, 72 hours
Protocol: as §4, §5

MM.1S cell line = test: CTG viability, 11x11 concentration matrix, Loewe synergy (multiple myeloma); settings: inhibitor combined with compound 1-1, 11x11 matrix, 72 hours
Protocol: as §4, §5

OPM-2 cell line = test: as above; settings: inhibitor combined with compound 1-1, 11x11 matrix, 72 hours
Protocol: as §4, §5

U266B1 cell line = test: as above; settings: inhibitor combined with compound 1-1, 11x11 matrix, 72 hours
Protocol: as §4, §5

RPMI 8226 cell line = test: as above; settings: inhibitor combined with compound 1-1, 11x11 matrix, 72 hours
Protocol: as §4, §5

KMS-34 cell line = test: as above; settings: inhibitor combined with compound 1-1, 11x11 matrix, 72 hours
Protocol: as §4, §5

[1] = system: PDX models LU5188, LU5247, LU5236, LU1508, LU5215, LU5137; test: Lung cancer patient-derived xenograft (PDX) in vivo combination study; parameters: species or system BALB/c nude or NOD/SCID mice; settings: six lung cancer PDX models; everolimus 5 mg/kg qd p.o.
Protocol: • Models: The study was conducted at Crown Bioscience with the PDX models LU5188 (small cell lung neuroendocrine carcinoma), LU5247 (non-small cell lung adenocarcinoma), LU5236 (small cell lung neuroendocrine carcinoma), LU1508 (small cell lung neuroendocrine carcinoma), LU5215 (small cell lung neuroendocrine carcinoma), and LU5137 (large cell neuroendocrine carcinoma). • Animals: BALB/c nude (LU1508) or NOD/SCID (all other models) female mice, 5-7 weeks old, weighing approximately 22-25 g, were purchased from certified vendors.
Tumor Inoculation: Fresh tumor tissues was harvest from tumor bearing mice, cut into small pieces (approximately 2-3 mm in diameter) and was kept in RPMI1640 cell culture medium at 4° C.). Lidocaine cream was applied to the PDX fragment inoculation site 1 hour before the operation. In addition, hair was removed from NOD/SCID mice before fragment implantation. Each animal was disinfected at the inoculation site with alcohol swap, PDX tumor fragments were inserted subcutaneously at the upper right dorsal flank with a trocar. The trocar was withdrawn any air bubbles under the skin were extruded.
Both compounds were administered orally.
as §2

Cc1nc(NC(=O)N2CCC[C@H]2C(N)=O)sc1-c1ccnc(C(C)(C)C(F)(F)F)c1 [Alpelisib, (2S)-1-N-[4-methyl-5-[2-(1,1,1-trifluoro-2-methylpropan-2-yl)pyridin-4-yl]-1,3-thiazol-2-yl]pyrrolidine-1,2-dicarboxamide]
anti-tumor effect compared to vehicle (MCF7 xenografts; day 28, ANOVA with post hoc Tukey's test, alpelisib 50 mg/kg, p.o. qd): significant anti-tumor effect | Δ TV ratio to vehicle group (A/C, B/C, (AB)/C) (MCF7 xenografts; alpelisib 50 mg/kg, p.o. qd): 0.15 | Δ TV (delta tumor volume) (MCF7 xenografts; day 28, alpelisib 50 mg/kg, combination 50 + 10 mg/kg): 91 mm^3 | antitumor effect vs vehicle (tumor volume) (CAL51 xenografts; alpelisib 20 mg/kg): neither alpelisib nor compound 1-1 produced a statistically significant antitumor effect | Δ TV ratio to vehicle group (A/C, B/C, (AB)/C) (CAL51 xenografts; alpelisib 20 mg/kg): 0.76 | Δ TV (delta tumor volume) (CAL51 xenografts; day 21, alpelisib 20 mg/kg, combination 20 + 3 mg/kg): 425 mm3 | Mean Loewe synergy score, NCI-H1836 (NCI-H1836 cell line): 1.69 | Mean Loewe synergy score, NCI-H1876 (NCI-H1876 cell line): 1.64 | Mean Loewe synergy score, NCI-H209 (NCI-H209 cell line): 1.49 | Mean Loewe synergy score, NCI-H526 (NCI-H526 cell line): 3.7 | Mean Loewe synergy score, NCI-H69 (NCI-H69 cell line): 5.05 | Mean Loewe synergy score, DOHH2 (DOHH-2 cell line): 1.59 | Mean Loewe synergy score, DB (DB cell line): −2.27 | Mean Loewe synergy score, WSU-DLCL2 (WSU-DLCL2 cell line): −2.69 | Mean Loewe synergy score, RAJI (RAJI cell line): 2.05 | Mean Loewe synergy score, SUDHL6 (SU-DHL-6 cell line): −6.28 | Mean Loewe synergy score, MM.1S (MM.1S cell line): 3.44 | Mean Loewe synergy score, OPM-2 (OPM-2 cell line): −2.51 | Mean Loewe synergy score, U266B1 (U266B1 cell line): 0.13 | Mean Loewe synergy score, RPMI 8226 (RPMI 8226 cell line): 0.9 | Mean Loewe synergy score, KMS-34 (KMS-34 cell line): 7.85

NC1(C(=O)N[C@@H](CCO)c2ccc(Cl)cc2)CCN(c2ncnc3[nH]ccc23)CC1 [Capivasertib, 4-amino-N-[(1S)-1-(4-chlorophenyl)-3-hydroxypropyl]-1-(7H-pyrrolo[2,3-d]pyrimidin-4-yl)piperidine-4-carboxamide]
Mean Loewe synergy score, NCI-H1836 (NCI-H1836 cell line): 1.9 | Mean Loewe synergy score, NCI-H1876 (NCI-H1876 cell line): 0.7 | Mean Loewe synergy score, NCI-H209 (NCI-H209 cell line): 0.85 | Mean Loewe synergy score, NCI-H526 (NCI-H526 cell line): 4.3 | Mean Loewe synergy score, NCI-H69 (NCI-H69 cell line): 7.38 | Mean Loewe synergy score, DOHH2 (DOHH-2 cell line): 2.89 | Mean Loewe synergy score, DB (DB cell line): 0.29 | Mean Loewe synergy score, WSU-DLCL2 (WSU-DLCL2 cell line): 0.95 | Mean Loewe synergy score, RAJI (RAJI cell line): 2.97 | Mean Loewe synergy score, SUDHL6 (SU-DHL-6 cell line): −1.92 | Mean Loewe synergy score, MM.1S (MM.1S cell line): 2.63 | Mean Loewe synergy score, OPM-2 (OPM-2 cell line): −1 | Mean Loewe synergy score, U266B1 (U266B1 cell line): 1.76 | Mean Loewe synergy score, RPMI 8226 (RPMI 8226 cell line): 4.81 | Mean Loewe synergy score, KMS-34 (KMS-34 cell line): 7.48

CO[C@H]1C[C@@H]2CC[C@@H](C)[C@@](O)(O2)C(=O)C(=O)N2CCCC[C@H]2C(=O)O[C@H]([C@H](C)C[C@@H]2CC[C@@H](OCCO)[C@H](OC)C2)CC(=O)[C@H](C)/C=C(\C)[C@@H](O)[C@@H](OC)C(=O)[C@H](C)C[C@H](C)/C=C/C=C/C=C/1C [Everolimus, (1R,9S,12S,15R,16E,18R,19R,21R,23S,24E,26E,28E,30S,32S,35R)-1,18-dihydroxy-12-[(2R)-1-[(1S,3R,4R)-4-(2-hydroxyethoxy)-3-methoxycyclohexyl]propan-2-yl]-19,30-dimethoxy-15,17,21,23,29,35-hexamethyl-11,36-dioxa-4-azatricyclo[30.3.1.0^4,9]hexatriaconta-16,24,26,28-tetraene-2,3,10,14,20-pentone]
antitumor effect vs vehicle (tumor volume) (MCF7 xenografts; day 28, ANOVA with post hoc Tukey's test, everolimus 2 mg/kg, p.o. qd): statistically significant antitumor effects | Δ TV ratio to vehicle group (A/C, B/C, (AB)/C) (MCF7 xenografts; everolimus 2 mg/kg, p.o. qd): 0.26 | Δ TV (delta tumor volume) (MCF7 xenografts; day 28, everolimus 2 mg/kg, combination 2 + 10 mg/kg): 164 mm3 | antitumor effect vs vehicle (tumor volume) (CAL51 xenografts; everolimus 2 mg/kg): did not significantly impede tumor growth | Δ TV ratio to vehicle group (A/C, B/C, (AB)/C) (CAL51 xenografts; everolimus 2 mg/kg): 0.87 | Δ TV (delta tumor volume) (CAL51 xenografts; day 21, everolimus 2 mg/kg, combination 2 + 3 mg/kg): 491 mm3 | body weight loss [1]: Body weight loss was caused by everolimus dosing | Mean Loewe synergy score, NCI-H1836 (NCI-H1836 cell line): 1.58 | Mean Loewe synergy score, NCI-H1876 (NCI-H1876 cell line): −0.29 | Mean Loewe synergy score, NCI-H209 (NCI-H209 cell line): 6.14 | Mean Loewe synergy score, NCI-H526 (NCI-H526 cell line): 6.49 | Mean Loewe synergy score, NCI-H69 (NCI-H69 cell line): 9.46 | Mean Loewe synergy score, DOHH2 (DOHH-2 cell line): 6.48 | Mean Loewe synergy score, DB (DB cell line): 5.81 | Mean Loewe synergy score, WSU-DLCL2 (WSU-DLCL2 cell line): 8.29 | Mean Loewe synergy score, RAJI (RAJI cell line): 14.66 | Mean Loewe synergy score, SUDHL6 (SU-DHL-6 cell line): 12.05 | Mean Loewe synergy score, MM.1S (MM.1S cell line): 6.7 | Mean Loewe synergy score, OPM-2 (OPM-2 cell line): 5.3 | Mean Loewe synergy score, U266B1 (U266B1 cell line): 4.16 | Mean Loewe synergy score, RPMI 8226 (RPMI 8226 cell line): 20.75 | Mean Loewe synergy score, KMS-34 (KMS-34 cell line): 16.19

Nc1cc(C(F)(F)F)c(-c2cc(N3CCOCC3)nc(N3CCOCC3)n2)cn1 [buparlisib, 5-(2,6-dimorpholin-4-ylpyrimidin-4-yl)-4-(trifluoromethyl)pyridin-2-amine]
Mean Loewe synergy score, NCI-H1836 (NCI-H1836 cell line): 1.64 | Mean Loewe synergy score, NCI-H1876 (NCI-H1876 cell line): 0.017 | Mean Loewe synergy score, NCI-H209 (NCI-H209 cell line): 0.78 | Mean Loewe synergy score, NCI-H526 (NCI-H526 cell line): −0.21 | Mean Loewe synergy score, NCI-H69 (NCI-H69 cell line): 4.09 | Mean Loewe synergy score, DOHH2 (DOHH-2 cell line): 1.11 | Mean Loewe synergy score, DB (DB cell line): 1.26 | Mean Loewe synergy score, WSU-DLCL2 (WSU-DLCL2 cell line): −3.1 | Mean Loewe synergy score, RAJI (RAJI cell line): 1.34 | Mean Loewe synergy score, SUDHL6 (SU-DHL-6 cell line): −2.5 | Mean Loewe synergy score, MM.1S (MM.1S cell line): 1.48 | Mean Loewe synergy score, OPM-2 (OPM-2 cell line): −1.38 | Mean Loewe synergy score, U266B1 (U266B1 cell line): −0.19 | Mean Loewe synergy score, RPMI 8226 (RPMI 8226 cell line): 3.57 | Mean Loewe synergy score, KMS-34 (KMS-34 cell line): 5.94
